Read-outs that look alike come from different tables or passages of the source.
What was measured:
Assay type in all cases: cell-based
MDA-MB-231 cells = assay: Differential Nuclear Staining (DNS) cytotoxicity assay
Source text: (§1) In this study, 19 human cell lines were utilized: seven breast human cancer; MDA-MB-468, MCF-7, T47D, HCC1419, HCC70, MDA-MB-231 (triple negative) and its lung metastatic (LM) derivative MDA-MB-231 LM2; four human leukemia/lymphoma cells, HL-60, Ramos, Jurkat and CEM, three human ovarian cancer, Ovcar 8, Ovcar 5 and Ovcar 3, one lung cancer, one melanoma and one pancreatic cell line, A549, A375, Panc-1 respectively. Furthermore, for selectivity/comparative purposes, the cell lines from the non-cancerous origin, MCF-10A, HS-27 were also included. The culture media used for MDA-MB-231, MDA-MB-231 LM2, MDA-MB-468, MCF-7, A549, A375, Panc-1, and HS-27 was DMEM (Hyclone, Logan UT), whereas for T47D, HCC-1419, HCC-70, HL-60, Ramos, Jurkat, CEM, Ovcar 8 and Ovcar 5 was RPMI-1640 (Hyclone, Logan UT). Consistently, both DMEM and RPMI culture media was supplemented with 10% heat-inactivated fetal bovine serum (FBS: Hyclone), 100 U/ml penicillin and 100 μg/ml streptomycin (Thermo Fisher Scientific Inc., Rockford, IL). The MCF-10A cells were grown in DMEM/F12 supplemented with 10% FBS, 10 μg/ml recombinant human insulin (Sigma), 0.5 μg/ml hydrocortisone (Sigma), 20 ng/ml epidermal growth factor, 2.5 mM L-glutamine, 100 U/ml penicillin, and 100 μg/ml streptomycin. Also, a slight modification of the culture media to the HL-60 and Ovcar 3 cell lines was that 20% of FBS was added to the media (ATCC, Manassas, VA, USA). In addition, Ovcar 3 cells required 10 μg/ml recombinant human insulin (Sigma). The adherent cells, growing in the logarithmic growth phase at a 60-75% confluence, were detached by utilizing a HyQtase enzyme (Thermo Fisher Scientific Inc.), counted and seeded in 96-well plates at 10,000 cells density in 100 μL of culture medium per well. Cells growing in suspension were processed similarly as described above except for the addition of HyQtase. Typically, the incubation conditions of all the cells were at 37° C. in a 5% CO2 humidified atmosphere.
(§2) To analyze the potential cytotoxic activity of PND, the Differential Nuclear Staining (DNS) assay, which was validated for high-throughput screening (HTS) using live-cell bio-imaging was utilized. For this assay, cells were seeded at 10,000 cells/well density in a 96-well plate in 100 μl of culture media, incubated overnight, and treated with a gradient of PND concentrations for 72 h. Two hours before imaging, two fluorescent nucleic acid intercalators were added to each well, Hoechst 33342 and propidium iodide (PI; Invitrogen); at a final concentration of 1 μg/ml each. Due to its high permeability, Hoechst stains all of the cells (total dead and alive), whereas PI only stains dead or dying cells. Montages of 2 by 2 images were captured directly from each individual well of the culture plates by using a multi-well plate reader IN Cell 2000 analyzer, an HTS and high-content analysis (HCA) system (GE Healthcare Life Sciences, Pittsburgh, PA). The following controls were included in every single plate: PBS as solvent/vehicle control, hydrogen peroxide as a positive control for cytotoxicity, and untreated cells to determine the background of toxicity due to cell manipulation and intrinsic factors usually associated with the culture protocol. Each experimental data point, as well as controls, were assessed in triplicates. Cytotoxic concentration 50% (CC50) values were calculated based on a linear interpolation equation. CC50 is defined as the PND concentration required to disrupt the plasma membrane integrity of 50% of the cell population, as compared with solvent-treated cells.
(§3) The selective cytotoxicity index (SCI) denotes the capability of a given experimental compound to kill cancer cells more efficiently while inflicting minimal toxicity to non-cancerous origin cells. Thus, the SCI for PND was calculated as follow: SCI=CC50 of non-cancerous cells/CC50 of cancer cells.

[1] = as above; settings: human; for selectivity ratio at 72 h: read-out: selective cytotoxicity index (SCI)
Source text: as §1, §2, §3

HL-60 cells = assay: as above
Source text: as §1, §2, §3

COC1=CC=C2Nc3cc(Cl)ccc3C(N=C3C=C(CN4CCCC4)C(=O)C(CN4CCCC4)=C3)=C2N1 [PND, 4-[(7-chloro-2-methoxy-1,5-dihydrobenzo[b][1,5]naphthyridin-10-yl)imino]-2,6-bis(pyrrolidin-1-ylmethyl)cyclohexa-2,5-dien-1-one]
selective cytotoxicity index (SCI) (MDA-MB-231 cells; CC50 of non-cancerous MCF-10A / CC50 of MDA-MB-231): 4.13 | CC50 (MDA-MB-231 cells; Homo sapiens, MDA-MB-231, 72 h, DNS assay): 1600 nM | selectivity ratio at 72 h ([1]; HL-60): 3.5 | selectivity ratio at 72 h ([1]; MCF-7 cells against non-cancerous MCF-10A cells, vs MCF-10A): 4.13 | CC50 at 72 h ([1]; MCF-10A non-cancerous cells): 6600 nM | selectivity ratio at 72 h ([1]; MDA-MB-231 LM2 cells against non-cancerous MCF-10A cells, vs MCF-10A): 2.54 | selectivity ratio at 72 h ([1]; MDA-MB-231 cells against non-cancerous MCF-10A cells, CC50 of non-cancerous MCF-10A / CC50 of MDA-MB-231): > 3 | selectivity ratio at 72 h ([1]; MDA-MB-468 cells against non-cancerous MCF-10A cells, vs MCF-10A): 3.88 | selectivity ratio at 72 h ([1]; T47D cells (against non-cancerous cells, line not specified)): < 1 | selectivity ratio at 72 h ([1]; HCC-70): < 1 | selectivity ratio at 72 h ([1]; Jurkat): 3.3 | selectivity ratio at 72 h ([1]; Ramos): 3 | selectivity ratio at 72 h ([1]; lung cancer line): < 2 | selectivity ratio at 72 h ([1]; melanoma cell line): 3.2 | selectivity ratio at 72 h ([1]; pancreatic cancer line): < 2 | selectivity ratio at 72 h ([1]; two of the three ovarian cancer lines): 3.9 | selective cytotoxicity index (SCI) (HL-60 cells): > 3 | CC50 (HL-60 cells; Homo sapiens, 72 h, DNS assay): 1900 nM

— US12201626B2, “Bifunctional compositions for the treatment of cancer” (ARMACEUTICA, INC., priority 2018, dated 2025)
